Experimental data as given in patent publication US9890142B2, “PDE4 inhibitor” (Meiji Seika Pharma Co., Ltd., priority 2013, dated 2018).

Test system: PDE4
Assay: Evaluation of PDE4 inhibition (scintillation proximity assay)
Assay type: biochemical
Conditions: inhibition rate relative to control, test compound at 1 μM
Outline: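 PDE4 was incubated 120 min at room temperature with [3H]-cAMP and compound in 50 mM Tris-HCl pH 7.5, 8.3 mM MgCl2, 1.7 mM EDTA, 0.3 mg/mL BSA. Product captured on ZnSO4-containing YSi-SPA beads and counted; inhibition calculated against DMSO control after no-enzyme blank subtraction.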

Row | SMILES | PDE4 inhibitory activity (1 μM (%))
1 | C[C@H]1CNCCN1c1nc2cc(Cl)c(C(F)(F)F)c(-c3ccccn3)c2o1 [Example 85, (S)-5-Chloro-2-(2-methylpiperazin-1-yl)-7-(pyridin-2-yl)-6-(trifluoromethyl)benzoxazole] | 26%
2 | C[C@H]1CNCCN1c1nc2c(F)c(Cl)cc(-c3ccccn3)c2o1 [Example 128, (S)-5-Chloro-4-fluoro-2-(2-methylpiperazin-1-yl)-7-(pyridin-2-yl)benzoxazole] | 79%
3 | C[C@H]1CNCCN1c1nc2c(Br)cc(Cl)cc2o1 [Example 163, (S)-4-Bromo-6-chloro-2-(2-methylpiperazin-1-yl)benzoxazole] | 52%
4 | C[C@H]1CNCCN1c1nc2cc(Cl)cc(C3CCCO3)c2o1 (mixture of isomers) [Example 80, 5-Chloro-2-((S)-2-methylpiperazin-1-yl)-7-(tetrahydrofuran-2-yl)benzoxazole] | 42%
5 | C[C@H]1CNCCN1c1nc2cc(Cl)cc(C3CCCCC3)c2o1 [Example 44, (S)-5-Chloro-7-cyclohexyl-2-(2-methylpiperazin-1-yl)benzoxazole] | 64%
6 | C[C@H]1CNCCN1c1nc2cc(Cl)cc(-n3cccn3)c2o1 [Example 33, (S)-5-Chloro-2-(2-methylpiperazin-1-yl)-′7-(1H-pyrazol-1-yl)benzoxazole] | 93%
7 | CCCOc1cc(Cl)cc2nc(N3CCNC[C@@H]3C)oc12 [Example 30, (S)-5-Chloro-2-(2-methylpiperazin-1-yl)-7-n-propoxybenzoxazole] | 61%
8 | C[C@@H]1CNCCN1c1nc2c(C(F)(F)F)c(Cl)cc(-n3cccn3)c2o1 [Example 180, (R)-5-Chloro-2-(2-methylpiperazin-1-yl)=7-(1H-pyrazol-1-yl)-4-(trifluoromethyl)benzoxazole] | 43%
9 | C[C@H]1CNCCN1c1nc2cc(Cl)cc(-c3ccno3)c2o1 [Example 109, (S)-5-Chloro-7-(isoxazol-5-yl)-2-(2-methylpiperazin-1-yl)benzoxazole] | 61%
10 | FC(F)(F)Oc1c(Cl)cc(-c2nccs2)c2oc(N3CCNCC3)nc12 [Example 175, 5-Chloro-2-(piperazin-1-yl)-7-(thiazol-2-yl)-4-(trifluoromethoxy)benzoxazole] | 96%
11 | CC(C)Cc1cc(Cl)cc2nc(N3CCNC[C@@H]3C)oc12 [Example 47, (S)-5-Chloro-7-isobutyl-2-(2-methylpiperazin-1-yl)benzoxazole] | 35%
12 | C[C@H]1CNCCN1c1nc2c(F)c(F)cc(-c3ccccn3)c2o1 [Example 89, (S)-4,5-Difluoro-2-(2-methylpiperazin-1-yl)-7-(pyridin-2-yl)benzoxazole] | 88%
13 | C[C@H]1CNCCN1c1nc2cc(Cl)cc(-c3cccc(F)n3)c2o1 [Example 60, (S)-5-Chloro-7-(6-fluoropyridin-2-yl)-2-(2-methylpiperazin-1-yl)benzoxazole] | 63%
14 | C[C@H]1CNCCN1c1nc2c(C(F)(F)F)c(F)cc(-n3cccn3)c2o1 [Example 119, (S)-5-Fluoro-2-(2-methylpiperazin-1-yl)-7-(1H-pyrazol-1-yl)-4-(trifluoromethyl)benzoxazole] | 91%
15 | COc1cccnc1-c1cc(Cl)cc2nc(N3CCNC[C@@H]3C)oc12 [Example 79, (S)-5-Chloro-7-(3-methoxypyridin-2-yl)-2-(2-methylpiperazin-1-yl)benzoxazole] | 53%
16 | C[C@H]1CNCCN1c1nc2cc(Cl)cc(-c3ccc(Cl)cn3)c2o1 [Example 58, (S)-5-Chloro-7-(5-chloropyridin-2-yl)-2-(2-methylpiperazin-1-yl)benzoxazole] | 77%
17 | Cc1c(Cl)cc(-c2nccs2)c2oc(N3CCNC[C@@H]3C)nc12 [Example 132, (S)-5-Chloro-4-methyl-2-(2-methylpiperazin-1-yl)-7-(thiazol-2-yl)benzoxazole] | 94%
18 | C[C@@H]1CNCCN1c1nc2c(OC(F)(F)F)c(Cl)cc(-c3ccccn3)c2o1 [Example 157, (R)-5-Chloro-2-(2-methylpiperazin-1-yl)-7-(pyridin-2-yl)-4-(trifluoromethoxy)benzoxazole] | 41%
19 | C[C@H]1CNCCN1c1nc2cc(Cl)cc(-c3ccsc3)c2o1 [Example 16, (S)-5-Chloro-2-(2-methylpiperazin-1-yl)-7-(thiophen-3-yl)benzoxazole] | 75%
20 | C[C@H]1CNCCN1c1nc2cc(Cl)cc(-c3ccc(F)cc3)c2o1 [Example 81, (S)-5-Chloro-7-(4-fluorophenyl)-2-(2-methylpiperazin-1-yl)benzoxazole] | 68%
21 | C[C@H]1CNCCN1c1nc2c(OC(F)(F)F)c(Cl)cc(-c3nccs3)c2o1 [Example 87, (S)-5-Chloro-2-(2-methylpiperazin-1-yl)-7-(thiazol-2-yl)-4-(trifluoromethoxy)benzoxazole] | 96%

Row | SMILES | PDE4 inhibitory activity (1 μM (%))
22 | C[C@H]1CNCCN1c1nc2c(F)c(Cl)cc(-c3nccs3)c2o1 [Example 129, (S)-5-Chloro-4-fluoro-2-(2-methylpiperazin-1-yl)-7-(thiazol-2-yl)benzoxazole] | 97%
23 | C[C@H]1CNCCN1c1nc2cc(Cl)cc(OC3CCCC3)c2o1 [Example 28, (S)-5-Chloro-7-(cyclopentyloxy)-2-(2-methylpiperazin-1-yl)benzoxazole] | 81%
24 | COc1c(Cl)cc(-n2cccn2)c2oc(N3CCNC[C@@H]3C)nc12 [Example 156, (S)-5-Chloro-4-methoxy-2-(2-methylpiperazin-1-yl)-7-(1H-pyrazol-1-yl)benzoxazole] | 91%
25 | C[C@H]1CNCCN1c1nc2cc(Cl)cc(-c3ccncc3)c2o1 [Example 43, (S)-5-Chloro-2-(2-methylpiperazin-1-yl)-7-(pyridin-4-yl)benzoxazole] | 61%
26 | C[C@H]1CNCCN1c1nc2c(-n3cccn3)cc(Cl)cc2o1 [Example 166, (S)-6-Chloro-2-(2-methylpiperazin-1-yl)-4-(1H-pyrazol-1-yl)benzoxazole] | 71%
27 | C[C@H]1CNCCN1c1nc2cc(Cl)cc(C3=NCCO3)c2o1 [Example 106, (S)-5-Chloro-7-(4,5-dihydro-oxazol-2-yl)-2-(2-methylpiperazin-1-yl)benzoxazole] | 42%
28 | C[C@H]1CNCCN1c1nc2c(F)c(F)c(F)c(-c3nccs3)c2o1 [Example 123, (S)-4,5,6-Trifluoro-2-(2-methylpiperazin-1-yl)-7-(thiazol-2-yl)benzoxazole] | 95%
29 | CCCC[C@H]1CNCCN1c1nc2cc(Cl)cc(CC)c2o1 [Example 13, (S)-2-(2-n-Butylpiperazin-1-yl)-5-chloro-7-ethylbenzoxazole] | <10%
30 | C[C@H]1CNCCN1c1nc2cc(Cl)cc(-c3cc(Cl)ccn3)c2o1 [Example 59, (S)-5-Chloro-7-(4-chloropyridin-2-yl)-2-(2-methylpiperazin-1-yl)benzoxazole] | 71%
31 | C[C@H]1CNCCN1c1nc2c(F)c(F)c(F)c(-n3cccn3)c2o1 [Example 124, (S)-4,5,6-Trifluoro-2-(2-methylpiperazin-1-yl)-7-(1H-pyrazol-1-yl)benzoxazole] | 46%
32 | C[C@@H]1CNCCN1c1nc2c(OC(F)(F)F)c(Cl)cc(-c3nccs3)c2o1 [Example 158, (R)-5-Chloro-2-(2-methylpiperazin-1-yl)-7-(thiazol-2-yl)-4-(trifluoromethoxy)benzoxazole] | 88%
33 | Cc1ccc(-c2cc(Cl)cc3nc(N4CCNC[C@@H]4C)oc23)o1 [Example 39, (S)-5-Chloro-7-(5-methylfuran-2-yl)-2-(2-methylpiperazin-1-yl)benzoxazole] | 42%
34 | C[C@H]1CNCCN1c1nc2cc(Cl)cc(N3CCOC3=O)c2o1 [Example 72, (S)-5-Chloro-2-(2-methylpiperazin-1-yl)-7-(2-oxo-oxazolidin-3-yl)benzoxazole] | 28%
35 | C[C@H]1CNCCN1c1nc2cc(Cl)cc(-c3ncc(C#N)s3)c2o1 [Example 62, (S)-5-Chloro-7-(5-cyanothiazol-2-yl)-2-(2-methylpiperazin-1-yl)benzoxazole] | 65%
36 | COc1cc(C#N)cc2nc(N3CCNC[C@@H]3C)oc12 [Example 168, (S)-5-Cyano-7-methoxy-2-(2-methylpiperazin-1-yl)benzoxazole] | 13%
37 | C[C@H]1CNCCN1c1nc2cc(Cl)cc(Oc3ccccc3)c2o1 [Example 70, (S)-5-Chloro-2-(2-methylpiperazin-1-yl)-7-phenoxybenzoxazole] | 38%
38 | C[C@H]1CNCCN1c1nc2cc(Cl)cc(Oc3nccs3)c2o1 [Example 77, (S)-5-Chloro-2-(2-methylpiperazin-1-yl)-7-(thiazol-2-yloxy)benzoxazole] | 30%
39 | C[C@H]1CNCCN1c1nc2c(C(F)(F)F)c(F)cc(-c3nccs3)c2o1 [Example 118, (S)-5-Fluoro-2-(2-methylpiperazin-1-yl)-7-(thiazol-2-yl)-4-(trifluoromethyl)benzoxazole] | 99%
40 | CSc1c(Cl)cc(-c2ccccn2)c2oc(N3CCNC[C@@H]3C)nc12 [Example 150, (S)-5-Chloro-2-(2-methylpiperazin-1-yl)-4-(methylthio)-7-(pyridin-2-yl)benzoxazole] | 91%
41 | COc1c(Cl)cc2nc(N3CCNC[C@@H]3C)oc2c1-c1ccccn1 [Example 140, (S)-5-Chloro-6-methoxy-2-(2-methylpiperazin-1-yl)-7-(pyridin-2-yl)benzoxazole] | 35%
42 | C[C@H]1CNCCN1c1nc2cc(Cl)cc(C(=O)NO)c2o1 [Example 98, (S)-5-Chloro-7-hydroxyaminocarbonyl-2-(2-methylpiperazin-1-yl)benzoxazole] | <10%
